In assay [1] the target is human orexin-1 receptor (Homo sapiens (Human), UniProt O43613). Nature of the assay: In vitro assay: intracellular calcium measurements (FLIPR), antagonistic activity. To be noted: CHO cells, 3 nM orexin-A, marked values are geometric means of n = 2-6, read-out: IC50 OX1. The format is cell-based. (A change in cytosolic calcium serves as a functional read-out for many receptors and channels.)

Assay [2] concerns the target human orexin-2 receptor (Homo sapiens (Human), UniProt O43614). Described as above. The assay is classed as cell-based. The settings on record: CHO cells, 3 nM orexin-A, marked values are geometric means of n = 2-6, read-out: IC50 OX2.
Setting [3] is: compound incubation time of 10 min.

The structures appear in SMILES notation. Read-outs that look alike come from different tables or passages of the source.

Chain of human orexin-2 receptor (O43614 whole entry): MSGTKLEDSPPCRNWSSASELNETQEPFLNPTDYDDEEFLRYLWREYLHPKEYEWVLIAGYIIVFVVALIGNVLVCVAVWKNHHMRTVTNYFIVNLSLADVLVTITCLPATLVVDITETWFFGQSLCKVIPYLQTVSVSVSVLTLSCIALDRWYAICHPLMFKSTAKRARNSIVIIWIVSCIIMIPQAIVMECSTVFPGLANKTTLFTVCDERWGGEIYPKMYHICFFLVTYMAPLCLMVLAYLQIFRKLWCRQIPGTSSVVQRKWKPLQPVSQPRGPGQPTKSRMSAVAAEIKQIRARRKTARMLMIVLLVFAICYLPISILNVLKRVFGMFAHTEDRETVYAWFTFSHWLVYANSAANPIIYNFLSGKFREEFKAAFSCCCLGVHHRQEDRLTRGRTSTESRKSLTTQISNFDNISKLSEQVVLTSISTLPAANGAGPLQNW
Chain of human orexin-1 receptor (O43613 whole entry): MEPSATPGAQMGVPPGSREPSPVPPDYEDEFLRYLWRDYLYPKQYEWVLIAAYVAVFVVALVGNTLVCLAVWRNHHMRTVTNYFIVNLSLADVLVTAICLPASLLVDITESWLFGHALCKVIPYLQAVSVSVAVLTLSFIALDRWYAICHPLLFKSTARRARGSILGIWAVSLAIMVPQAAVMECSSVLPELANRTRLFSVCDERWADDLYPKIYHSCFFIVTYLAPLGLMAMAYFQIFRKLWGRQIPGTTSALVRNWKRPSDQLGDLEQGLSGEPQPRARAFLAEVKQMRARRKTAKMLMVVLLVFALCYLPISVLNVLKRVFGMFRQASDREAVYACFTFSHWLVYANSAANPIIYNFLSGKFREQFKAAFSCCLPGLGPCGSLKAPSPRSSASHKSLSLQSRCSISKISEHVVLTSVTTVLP

A word on the IC50: it is the concentration needed to halve the response being measured. As for `CCC(c1ccc(OC(F)(F)F)cc1)N1C(=O)CCCC1c1c(OC)cccc1OC` (centres unmarked) [Example 186, 6-(2,6-dimethoxyphenyl)-1-(1-(4-(trifluoromethoxy)phenyl)propyl)piperidin-2-one], the IC50 in assay [1] (setting [3]) was 2770 nM; in assay [2] (setting [3]) it was 5650 nM.

Turning to `COc1cccc(OC)c1C1CCCC(=O)N1Cc1ccc(OC(F)F)cn1` (centres unmarked) [Example 187, 1-((5-(difluoromethoxy)pyridin-2-yl)methyl)-6-(2,6-dimethoxyphenyl)piperidin-2-one], the IC50 in assay [1] (setting [3]) was 235 nM; in assay [2] (setting [3]), 70 nM.

With `COc1cccc(OC)c1C1CCCC(=O)N1Cc1cc(OC(F)F)ccn1` (centres unmarked) [Example 188, 1-((4-(difluoromethoxy)pyridin-2-yl)methyl)-6-(2,6-dimethoxyphenyl)piperidin-2-one], the IC50 in assay [1] (setting [3]) was 4180 nM; in assay [2] (setting [3]), 484 nM.

For `COc1cccc(OC)c1C1CCCC(=O)N1Cc1cccc(-c2ccccc2)c1` (centres unmarked) [Example 189, 1-([1,1′-biphenyl]-3-ylmethyl)-6-(2,6-dimethoxyphenyl)piperidin-2-one], the figures for the IC50 in assay [1] (compound incubation 120 min) and in assay [2] (compound incubation 120 min) were 17 nM and 12 nM, respectively.

On to `COc1cccc(OC)c1C1CCCC(=O)N1Cc1ccccc1-c1ccccc1` (centres unmarked) [Example 190, 1-([1,1′-biphenyl]-2-ylmethyl)-6-(2,6-dimethoxyphenyl)piperidin-2-one], for which the IC50 in assay [1] (setting [3]) worked out at 1950 nM; in assay [2] (setting [3]), 507 nM.

Turning to `COc1cccc(OC)c1C1CCCC(=O)N1Cc1ccccc1Oc1ccccc1` (centres unmarked) [Example 191, 6-(2,6-dimethoxyphenyl)-1-(2-phenoxybenzyl)piperidin-2-one], the IC50 came out at 373 nM in assay [1] (setting [3]) and 50 nM in assay [2] (setting [3]).

Regarding `COc1cccc(OC)c1C1CCCC(=O)N1Cc1ccc(Oc2ccccc2)nc1` (centres unmarked) [Example 192, 6-(2,6-dimethoxyphenyl)-1-((6-phenoxypyridin-3-yl)methyl)piperidin-2-one], the IC50 in assay [1] (setting [3]) amounted to 361 nM; in assay [2] (setting [3]) it was 29 nM.

Consider `COc1cccc(OC)c1C1CCCCC(=O)N1Cc1ccc(OC(F)(F)F)cc1` (centres unmarked) [Example 193, 7-(2,6-dimethoxyphenyl)-1-(4-(trifluoromethoxy)benzyl)azepan-2-one], for which the half-maximal inhibitory concentration (IC50) was determined as 257 nM in assay [1] (setting [3]) and 66 nM in assay [2] (setting [3]).

On to `CCOc1ccccc1C1CCC(=O)N1Cc1ccc(F)cc1` (centres unmarked) [Example 194, 5-(2-ethoxyphenyl)-1-(4-fluorobenzyl)pyrrolidin-2-one], for which the IC50 is over 12700 nM in assay [1] (setting [3]) and 669 nM in assay [2] (setting [3]).

Consider `CCOc1ccccc1C1CCC(=O)N1Cc1ccc(OC(F)(F)F)cc1` (centres unmarked) [Example 195, 5-(2-ethoxyphenyl)-1-(4-(trifluoromethoxy)benzyl)pyrrolidin-2-one], for which the concentration for half-maximal inhibition (IC50) in assay [1] (setting [3]) turned out to be 821 nM; in assay [2] (setting [3]) it was 240 nM.

Take `COc1cccc(OC)c1C1CCC(=O)N1Cc1ccc(OC(F)(F)F)cc1` (centres unmarked) [Example 196, 5-(2,6-dimethoxyphenyl)-1-(4-(trifluoromethoxy)benzyl)pyrrolidin-2-one]: the results for the IC50 in assay [1] (setting [3]) and in assay [2] (setting [3]) were 724 nM and 158 nM, respectively.

On to `COc1cccc(OC)c1C1CCC(=O)N1Cc1ccc(F)cc1` (centres unmarked) [Example 197, 5-(2,6-dimethoxyphenyl)-1-(4-fluorobenzyl)pyrrolidin-2-one], for which the IC50 was over 10400 nM in assay [1] (setting [3]) and 1300 nM in assay [2] (setting [3]).

Take `COc1cccc(OC)c1C1CC(C)C(=O)N1Cc1cccc(OC(F)F)c1` (centres unmarked) [Example 198, 1-(3-(difluoromethoxy)benzyl)-5-(2,6-dimethoxyphenyl)-3-methylpyrrolidin-2-one]: the IC50 in assay [1] (setting [3]) amounted to 117 nM; in assay [2] (setting [3]), 96 nM.

Regarding `COc1cccc(OC)c1C1CC(C)C(=O)N1Cc1ccc(OC(F)F)nc1` (centres unmarked) [Example 199, 1-((6-(difluoromethoxy)pyridin-3-yl)methyl)-5-(2,6-dimethoxyphenyl)-3-methylpyrrolidin-2-one], the 50% inhibitory concentration (IC50) is 351 nM in assay [1] (setting [3]) and 621 nM in assay [2] (setting [3]).

For the compound `COc1cccc(OC)c1C1CC(C)C(=O)N1Cc1cccc(OC(F)(F)F)c1` (centres unmarked) [Example 200, 5-(2,6-dimethoxyphenyl)-3-methyl-1-(3-(trifluoromethoxy)benzyl)pyrrolidin-2-one], the IC50 in assay [1] (setting [3]) and in assay [2] (setting [3]) was 108 nM each time.

For `COc1cccc(OC)c1C1CC(C)C(=O)N1Cc1cccc(OC(F)F)n1` (centres unmarked) [Example 201, 1-((6-(difluoromethoxy)pyridin-2-yl)methyl)-5-(2,6-dimethoxyphenyl)-3-methylpyrrolidin-2-one], the values for the IC50 in assay [1] (setting [3]) and in assay [2] (setting [3]) were 955 nM and 192 nM, respectively.

Turning to `COc1cccc(OC)c1C1CC(C)C(=O)N1Cc1ccnc(OC(F)F)c1` (centres unmarked) [Example 202, 1-((2-(difluoromethoxy)pyridin-4-yl)methyl)-5-(2,6-dimethoxyphenyl)-3-methylpyrrolidin-2-one], the IC50 was 224 nM in assay [1] (setting [3]) and 923 nM in assay [2] (setting [3]).

Consider `CCC(c1ccc(OC(F)(F)F)cc1)N1C(=O)C(C)CC1c1c(OC)cccc1OC` (centres unmarked) [Example 203, 5-(2,6-dimethoxyphenyl)-3-methyl-1-(1-(4-(trifluoromethoxy)phenyl)propyl)pyrrolidin-2-one], for which the IC50 in assay [1] (setting [3]) was 451 nM; in assay [2] (setting [3]), 1170 nM.

In the case of `COc1cccc(OC)c1C1CC(C)C(=O)N1Cc1cc(OC(F)F)ccn1` (centres unmarked) [Example 204, 1-((4-(difluoromethoxy)pyridin-2-yl)methyl)-5-(2,6-dimethoxyphenyl)-3-methylpyrrolidin-2-one], the IC50 in assay [1] (setting [3]) turned out to be 6380 nM; in assay [2] (setting [3]), 1260 nM.

As to `CCOc1ccc(CN2C(=O)CCCC2c2c(OC)cccc2OC)cc1` (centres unmarked) [Example 205, 6-(2,6-dimethoxyphenyl)-1-(4-ethoxybenzyl)piperidin-2-one], the values for the IC50 in assay [1] (setting [3]) and in assay [2] (setting [3]) were 202 nM and 65 nM, respectively.

Turning to `COc1cccc(OC)c1C1CCCC(=O)N1Cc1ccc(OC(C)C)cc1` (centres unmarked) [Example 206, 6-(2,6-dimethoxyphenyl)-1-(4-isopropoxybenzyl)piperidin-2-one], the values for the IC50 in assay [1] (setting [3]) and in assay [2] (setting [3]) were 383 nM and 16 nM, respectively.

Consider `CCCOc1ccc(CN2C(=O)CCCC2c2c(OC)cccc2OC)cc1` (centres unmarked) [Example 207, 6-(2,6-dimethoxyphenyl)-1-(4-propoxybenzyl)piperidin-2-one], for which the IC50 was determined as 169 nM in assay [1] (setting [3]) and 35 nM in assay [2] (setting [3]).

For `COc1cccc(OC)c1C1CCCC(=O)N1Cc1ccc(OCC2CC2)cc1` (centres unmarked) [Example 208, 1-(4-(cyclopropylmethoxy)benzyl)-6-(2,6-dimethoxyphenyl)piperidin-2-one], the IC50 stood at 1110 nM in assay [1] (setting [3]) and 39 nM in assay [2] (setting [3]).

On to `COc1cccc(OCCCO)c1C1CCCC(=O)N1Cc1ccc(OC(F)(F)F)cc1` (centres unmarked) [Example 209, 6-(2-(3-hydroxypropoxy)-6-methoxyphenyl)-1-(4-(trifluoromethoxy)benzyl)piperidin-2-one], for which the 50% inhibitory concentration (IC50) in assay [1] (setting [3]) came to 1060 nM; in assay [2] (setting [3]) it was 286 nM.

As for `COc1cccc(OCC2CC2)c1C1CCCC(=O)N1Cc1ccc(OC(F)(F)F)cc1` (centres unmarked) [Example 210, 6-(2-(cyclopropylmethoxy)-6-methoxyphenyl)-1-(4-(trifluoromethoxy)benzyl)piperidin-2-one], the IC50 in assay [1] (setting [3]) stood at 2550 nM; in assay [2] (setting [3]), 4140 nM.

On to `COCCOc1cccc(OC)c1C1CCCC(=O)N1Cc1ccc(OC(F)(F)F)cc1` (centres unmarked) [Example 211, 6-(2-methoxy-6-(2-methoxyethoxy)phenyl)-1-(4-(trifluoromethoxy)benzyl)piperidin-2-one], for which the IC50 in assay [1] (setting [3]) worked out at 2780 nM; in assay [2] (setting [3]) it was 664 nM.

For `CCOc1cccc(OC)c1C1CCCC(=O)N1Cc1ccc(OC(F)(F)F)cc1` (centres unmarked) [Example 212, 6-(2-ethoxy-6-methoxyphenyl)-1-(4-(trifluoromethoxy)benzyl)piperidin-2-one], the IC50 came to 216 nM in assay [1] (setting [3]) and 37 nM in assay [2] (setting [3]).

With `COc1cccc(OCCO)c1C1CCCC(=O)N1Cc1ccc(OC(F)(F)F)cc1` (centres unmarked) [Example 213, 6-(2-(2-hydroxyethoxy)-6-methoxyphenyl)-1-(4-(trifluoromethoxy)benzyl)piperidin-2-one], the IC50 in assay [1] (setting [3]) came out at 1380 nM; in assay [2] (setting [3]), 85 nM.

Take `COc1cccc(OCC(O)CO)c1C1CCCC(=O)N1Cc1ccc(OC(F)(F)F)cc1` (centres unmarked) [Example 214, 6-(2-(2,3-dihydroxypropoxy)-6-methoxyphenyl)-1-(4-(trifluoromethoxy)benzyl)piperidin-2-one]: the IC50 was 3540 nM in assay [1] (setting [3]) and 735 nM in assay [2] (setting [3]).

With `COc1cccc(OC)c1C1CCC(C)(C)C(=O)N1Cc1ccc(OC(F)(F)F)cc1` (centres unmarked) [Example 215, 6-(2,6-dimethoxyphenyl)-3,3-dimethyl-1-(4-(trifluoromethoxy)benzyl)piperidin-2-one], the IC50 in assay [1] (setting [3]) came to 1410 nM; in assay [2] (setting [3]), 1290 nM.

Turning to `COc1cccc(OC)c1C1CCC(C)C(=O)N1Cc1ccc(OC(F)(F)F)cc1` (centres unmarked) [Example 216, 6-(2,6-dimethoxyphenyl)-3-methyl-1-(4-(trifluoromethoxy)benzyl)piperidin-2-one], the results for the IC50 in assay [1] (setting [3]) and in assay [2] (setting [3]) were 40 nM and 894 nM, respectively.

As for `COc1cccc(OC)c1C1CC(C)(C)C(=O)N1Cc1ccc(OC(F)(F)F)cc1` (centres unmarked) [Example 217, 5-(2,6-dimethoxyphenyl)-3,3-dimethyl-1-(4-(trifluoromethoxy)benzyl)pyrrolidin-2-one], the IC50 was 22 nM in assay [1] (setting [3]) and 252 nM in assay [2] (setting [3]).

On to `COc1cccc(OC)c1C1CCCC(=O)N1Cc1ccnc(-c2nccs2)c1` (centres unmarked) [Example 219, 6-(2,6-dimethoxyphenyl)-1-((2-(thiazol-2-yl)pyridin-4-yl)methyl)piperidin-2-one], for which the IC50 was found to be 19 nM in assay [1] (compound incubation 120 min) and 9 nM in assay [2] (compound incubation 120 min).

For `COc1cccc(Cl)c1C1CCCC(=O)N1Cc1ccc(OC(F)(F)F)cc1` (centres unmarked) [Example 221, 6-(2-chloro-6-methoxyphenyl)-1-(4-(trifluoromethoxy)benzyl)piperidin-2-one], the concentration for half-maximal inhibition (IC50) turned out to be 4880 nM in assay [1] (setting [3]) and 154 nM in assay [2] (setting [3]).

The values are drawn from patent US9242970B2 (ACTELION PHARMACEUTICALS LTD., priority 2010, dated 2016).
